According to patent US12441734B2, “Ferroptosis inhibitor and use therefor” (JICHI MEDICAL UNIVERSITY, priority 2021, dated 2025):
pEC50: −log10 of the molar value. “Also recorded” adds a separate entry of the source. Blank lines part the entries; values can stand above or below the compound they belong to.

Tests used:
[1] = test system: Leigh syndrome patient cells (LS^ND3); experiment: Test I: suppression of BSO-induced cell death, Leigh syndrome patient cells; type: cell-based, human; settings: 100 μM BSO alone or coadded with inhibitor (1 μM; GSK872 1-10 μM, v-VAD 1, 10 μM), 48 hours; FIG. 1B, 3B
Excerpt: (§1) In the drawing, the abscissa depicts test compounds, and the ordinate depicts the cell viability (%) of each treated plot when the number of live cells in a control non-supplemented with BSO is defined as 100%.
as §1

[2] = test system: Leigh syndrome patient cells (LS^ND3); experiment: Test I: suppression of RSL-3-induced cell death, Leigh syndrome patient cells; type: cell-based, human; settings: 50 nM RSL-3 alone or coadded with inhibitor, 48 hours, FIG. 2B, 4B
Excerpt: (§2) In the drawing, the abscissa depicts test compounds, and the ordinate depicts the cell viability (%) of each treated plot when the number of live cells in a control non-supplemented with RSL-3 is defined as 100%.
as §2

[3] = test system: Leigh syndrome patient cells (KCMC10); experiment: Test III: suppression of BSO-induced ferroptosis, Leigh syndrome patient cells; type: cell-based, human; settings: for cell death ascribable to ferroptosis induced by BSO: 100 μM BSO coadded with test compound, FIG. 32; for pEC50: Homo sapiens, read-out: EC50 (50% effective concentration of the suppressive effect on cell death ascribable to ferroptosis induced by BSO); for pEC50 / ferroptosis inhibitory effect (judged from EC50 value): Leigh syndrome patient cells (KCMC10), BSO; for ferroptosis inhibitory effect (judged from EC50 value): Table 3
Excerpt: (§3) Apomorphine and idebenone approved as a therapeutic drug for Leber's hereditary optic neuropathy in the Europe were used as control drugs.
(§4) In the drawing, A depicts the results obtained using compounds D8, D9, D10, D18, D20, D26, and D36, and B depicts the results obtained using compounds D37, D38, D39, D40, D41, D42, and D43. In the drawing, the abscissa depicts test compounds, and the ordinate depicts the cell viability (%) of each treated plot when the number of live cells in a control non-supplemented with BSO is defined as 100%.

[4] = test system: MELAS patient cells (ME169); experiment: Test III: suppression of BSO-induced ferroptosis, MELAS patient cells; type: cell-based, human; settings: 80 μM BSO coadded with test compound; FIG. 33
Excerpt: as §3, §4

[5] = test system: Leigh syndrome patient cells (KCMC10); experiment: Test III: suppression of RSL-3-induced ferroptosis, Leigh syndrome patient cells; type: cell-based, human; settings: 100 nM RSL-3 coadded with test compound; FIG. 34
Excerpt: as §3
as §4, with “RSL-3” for “BSO”

[6] = test system: MELAS patient cells (ME169); experiment: Test III: suppression of RSL-3-induced ferroptosis, MELAS patient cells; type: cell-based, human; settings: 100 nM RSL-3 coadded with test compound; FIG. 35
Excerpt: as §3
as §4, with “RSL-3” for “BSO”

dopamine D2 receptor = dopamine D2 receptor (Homo sapiens (Human), UniProt P14416); experiment: Test IV: dopamine D2 receptor binding activity (GeneBLAzer D2-Gqo5-NEAT-bla CHO-K1 Cell-based Assay); settings: for Dopamine D2 receptor binding activity, Activity intensity: CHO-K1 reporter cells, 5 hours
Chain of dopamine D2 receptor (P14416 whole entry): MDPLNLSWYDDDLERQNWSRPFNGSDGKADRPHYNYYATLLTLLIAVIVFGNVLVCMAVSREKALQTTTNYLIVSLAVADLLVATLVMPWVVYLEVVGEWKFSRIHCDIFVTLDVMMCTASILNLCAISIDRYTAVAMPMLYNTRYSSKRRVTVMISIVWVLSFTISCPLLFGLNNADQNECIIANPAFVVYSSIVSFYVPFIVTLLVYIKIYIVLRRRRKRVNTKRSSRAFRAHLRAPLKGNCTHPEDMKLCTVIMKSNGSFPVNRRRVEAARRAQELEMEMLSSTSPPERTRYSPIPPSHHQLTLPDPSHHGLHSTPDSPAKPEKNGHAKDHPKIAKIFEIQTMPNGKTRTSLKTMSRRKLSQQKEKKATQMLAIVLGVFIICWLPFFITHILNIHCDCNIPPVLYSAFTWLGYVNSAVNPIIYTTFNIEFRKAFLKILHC
Method: In this test, the dopamine D2 receptor binding activity of each test compound was measured using GeneBLAzer D2-Gqo5-NEAT-bla CHO-K1 Cell-based Assay (Thermo Fisher Scientific, Inc.). The CHO cells are designed such that a signal transduction pathway is activated by addition of a drug to express a reporter gene (P lactamase). […] Therefore, the binding activity of the test compound can be measured by measuring a blue fluorescence/green fluorescence ratio. The CHO cells were inoculated at 10,000 cells/well to a 384-well plate and cultured for 16 to 20 hours in a CO2 incubator. […] A substrate mix was added to the cells and incubated at room temperature for 2 hours. […] The respective EC50 values of the test compounds were determined from the measured fluorescence ratios using GraphPad Prism 8.

[7] = test system: human liver cancer cell line (Huh7); experiment: Test V: suppression of RSL-3-induced cell death in liver cancer cell system (LDH, MTT); type: cell-based; set-up: key to LDH (LDH activity, cell death): relative to control without RSL-3 (= 1); settings: for viability at 1 µM: Homo sapiens, Huh-7, read-out: MTT (cell proliferation and cell viability); for viability at 1 µM / LDH (LDH activity, cell death) / MTT (cell proliferation and cell viability): Huh7, test compound 1 μM (GSK872 5 μM) 1 hour, then RSL-3 0.5 μM 24 hours, relative value, control non-supplemented with RSL-3 = 1; for cell death induced by RSL-3 (in words): Huh7, RSL-3 0.5 μM
Method: The ferroptosis inducer used was RSL-3.
At the stage where 70% confluency was attained, the medium was replaced with the medium for the test, and DMSO or each test compound (final concentration of GSK872: 5 μM, and final concentration of the other compounds: 1 μM) was added to the cells in each well, which were then cultured for 1 hour. Then, the ferroptosis inducer (final concentration: 0.5 μM) was added to the cells in each well, which were then cultured for 24 hours. After the completion of culture, cell death suppressive activity was measured with lactate dehydrogenase (LDH) activity as an index while cell proliferation and cell viability were measured with activity of reducing yellow tetrazolium salt (MTT) into formazan as an index.
The values in the table are relative values when the LDH activity and MTT value of a control non-supplemented with RSL-3 are each defined as 1.

SH-SY5Y cells = experiment: Test VI: inhibition of rotenone-induced neuronal death (LDH assay); type: cell-based, human; set-up: key: ++: the case where a concentration-dependent inhibitory effect on rotenone-induced cell death was able to be confirmed twice; +: In the third test, the case where the concentration-dependent inhibitory effect was able to be confirmed; ±: the case where no concentration-dependent inhibitory effect was able to be confirmed; −: The case where any inhibitory effect on rotenone-induced cell death was able to be confirmed in none of the two tests; settings: rotenone 1 μM, compound 10 nM-10 μM (Apo 0.1 nM-10 μM), 48 hours
Method: After the completion of culture, rotenone-induced cell death was measured using Cytotoxicity LDH Assay Kit-WST (Dojindo Laboratories). […] The test was conducted twice, and the case where a concentration-dependent inhibitory effect on rotenone-induced cell death was able to be confirmed twice was rated as (++). If the inhibitory effect was confirmed in one of the two tests and no inhibitory effect was confirmed in the other test, the third test was conducted. In the third test, the case where the concentration-dependent inhibitory effect was able to be confirmed was rated as (+), and the case where no concentration-dependent inhibitory effect was able to be confirmed was rated as (±). The case where any inhibitory effect on rotenone-induced cell death was able to be confirmed in none of the two tests was rated as (−).

[8] = test system: normal cells (Promo1 cells); experiment: Test I: RSL-3 and test compounds on normal cells; type: cell-based, human; settings: RSL-3 alone or coadded with inhibitor, 48 hours; FIG. 4A, 8A
Excerpt: as §2, §2, §2

[9] = test system: mitochondrial cardiomyopathy patient cells (ME250-1); experiment: Test I: suppression of BSO-induced cell death, mitochondrial cardiomyopathy patient cells; type: cell-based, human; settings: 50-200 μM BSO alone or coadded with drug; FIG. 5B
[10] = test system: mitochondrial cardiomyopathy patient cells (ME250-1); experiment: Test I: suppression of RSL-3-induced cell death, mitochondrial cardiomyopathy patient cells; type: cell-based, human; settings: 10-140 nM RSL-3 alone or coadded with drug; FIG. 8B
Excerpt: as §2

[11] = test system: mitochondrial hepatopathy patient cells (ME263-1); experiment: Test I: suppression of RSL-3-induced cell death, mitochondrial hepatopathy patient cells; type: cell-based, human; settings: 10-140 nM RSL-3 coadded with drug; FIG. 9B
[12] = test system: Kearns-Sayre syndrome (KSS) patient cells (ME130-1); experiment: Test I: suppression of RSL-3-induced cell death, KSS patient cells; type: cell-based, human; settings: 10-140 nM RSL-3 coadded with drug; FIG. 10B
[13] = test system: Kearns-Sayre syndrome (KSS) patient cells (ME130-1); experiment: Test I: suppression of BSO-induced cell death, KSS patient cells; settings: BSO coadded with drug; FIG. 7B
[14] = test system: mitochondrial hepatopathy patient cells (ME263-1); experiment: Test I: suppression of BSO-induced cell death, mitochondrial hepatopathy patient cells; settings: 50-200 μM BSO coadded with drug; FIG. 6B

SMILES: CC(=O)N(O)CCCCCNC(=O)CCC(=O)N(O)CCCCCNC(=O)CCC(=O)N(O)CCCCCN [DFO, deferoxamine]
cell death induced by BSO (cell viability) [1]: suppressed | cell death induced by RSL-3 (cell viability) [2]: the same or similar results

SMILES: CCCCOc1ccc2c(c1O)-c1cccc3c1[C@@H](C2)N(C)CC3.Cl [D36]
cell death ascribable to ferroptosis induced by BSO [3]: markedly suppressed | pEC50 [3]: 6.91 | ferroptosis inhibitory effect (judged from EC50 value) [3]: particularly high | cell death ascribable to ferroptosis induced by BSO [4]: markedly suppressed | cell death ascribable to ferroptosis induced by RSL-3 [5]: suppressed | cell death ascribable to ferroptosis induced by RSL-3 [6]: suppressed | dopamine D2 receptor binding activity (in words) (dopamine D2 receptor): no or little | Dopamine D2 receptor binding activity, Activity intensity (dopamine D2 receptor): − | viability at 1 µM [7]: 81% | LDH (LDH activity, cell death) [7]: 0.91 | Inhibitory effect on rotenone-induced cell death (SH-SY5Y cells): ++

Dopamine D2 receptor binding activity, Activity intensity (dopamine D2 receptor): ++
SMILES: CN1CCc2cccc3c2[C@H]1Cc1ccc(O)c(O)c1-3 [Apomorphine, apomorphine]
cell death induced by BSO (cell viability) [1]: suppressed | cell death induced by RSL-3 (cell viability) ([2]; listed as Apo): the same or similar results; also recorded: same or similar tendency as above was more strongly confirmed | cell death (cell viability) in normal cells, RSL-3 [8]: suppressed | cell death induced by BSO (cell viability) [9]: suppressed | cell death induced by RSL-3 (cell viability) [10]: suppressed | cell death induced by RSL-3 (cell viability) [11]: the same or similar results | cell death induced by RSL-3 (cell viability) [12]: the same or similar results | viability at 1 µM [7]: 67% | cell death induced by RSL-3 (in words) [7]: suppressed | LDH (LDH activity, cell death) [7]: 1.82 | Inhibitory effect on rotenone-induced cell death (SH-SY5Y cells): ± | cell death induced by BSO (cell viability) [13]: the same or similar results | cell death induced by BSO (cell viability) [14]: the same or similar results

SMILES: COC(=O)c1ccc([C@@H]2c3[nH]c4ccccc4c3C[C@@H](C(=O)OC)N2C(=O)CCl)cc1 [RSL-3, reference compound]
cell death (cell viability) in normal cells, RSL-3 [8]: induced | cell death induced by RSL-3 (cell viability) [10]: induced | cell death induced by RSL-3 (in words) [7]: induced | LDH (LDH activity, cell death) [7]: 10.67 | MTT (cell proliferation and cell viability) [7]: 0.45

SMILES: Clc1cccc(CN=C2Nc3ccccc3NC23CCNCC3)c1 [Lip-1, liproxstatin]
cell death induced by BSO (cell viability) [1]: suppressed | cell death induced by RSL-3 (cell viability) [2]: the same or similar results

SMILES: CC(C)S(=O)(=O)c1ccc2nccc(Nc3ccc4scnc4c3)c2c1 [GSK872]
cell death induced by BSO (cell viability) [1]: not suppressed | cell death induced by RSL-3 (cell viability) [2]: same or similar tendency as above was more strongly confirmed | cell death (cell viability) in normal cells, RSL-3 [8]: similarly induced | viability at 1 µM [7]: 38% | LDH (LDH activity, cell death) [7]: 10.84

SMILES: CCOC(=O)c1ccc(NC2CCCCC2)c(N)c1 [Fer-1, ferrostatin-1]
cell death induced by BSO (cell viability) [1]: suppressed | cell death induced by RSL-3 (cell viability) [2]: the same or similar results; also recorded: same or similar tendency as above was more strongly confirmed | cell death (cell viability) in normal cells, RSL-3 [8]: suppressed | cell death induced by RSL-3 (cell viability) [10]: suppressed | cell death induced by RSL-3 (cell viability) [11]: the same or similar results | cell death induced by RSL-3 (cell viability) [12]: the same or similar results | cell death induced by RSL-3 (in words) [7]: suppressed | LDH (LDH activity, cell death) [7]: 2.50 | MTT (cell proliferation and cell viability) [7]: 0.86

SMILES: COc1ccc2c(c1OC)C[C@@H]1c3c(cc4c(c3-2)OCO4)CCN1C [D8]
cell death ascribable to ferroptosis induced by BSO [3]: markedly suppressed | pEC50 [3]: 6.74 | ferroptosis inhibitory effect (judged from EC50 value) [3]: particularly high | cell death ascribable to ferroptosis induced by BSO [4]: markedly suppressed | cell death ascribable to ferroptosis induced by RSL-3 [5]: suppressed | cell death ascribable to ferroptosis induced by RSL-3 [6]: suppressed | dopamine D2 receptor binding activity (in words) (dopamine D2 receptor): no or little | Dopamine D2 receptor binding activity, Activity intensity (dopamine D2 receptor): − | viability at 1 µM [7]: 56% | LDH (LDH activity, cell death) [7]: 2.46 | Inhibitory effect on rotenone-induced cell death (SH-SY5Y cells): ++

SMILES: CCCCS(=N)(=O)CCC(N)C(=O)O [BSO, L-buthionine-(S,R)-sulfoximine]
cell death induced by BSO (cell viability) [1]: induced | cell death induced by BSO (cell viability) [9]: induced

SMILES: COC1=C(OC)C(=O)C(CCCCCCCCCCO)=C(C)C1=O [Ide, idebenone]
cell death induced by BSO (cell viability) [9]: suppressed | cell death induced by BSO (cell viability) [13]: the same or similar results | cell death induced by BSO (cell viability) [14]: the same or similar results

SMILES: COc1cc2c3c(c1O)-c1c(ccc(OC)c1OC)CC3N(C)CC2 (centres unmarked) [D26]
cell death ascribable to ferroptosis induced by BSO [3]: markedly suppressed | pEC50 [3]: 6.54 | cell death ascribable to ferroptosis induced by BSO [4]: markedly suppressed | cell death ascribable to ferroptosis induced by RSL-3 [5]: suppressed | cell death ascribable to ferroptosis induced by RSL-3 [6]: suppressed | dopamine D2 receptor binding activity (in words) (dopamine D2 receptor): no or little | Dopamine D2 receptor binding activity, Activity intensity (dopamine D2 receptor): − | viability at 1 µM [7]: 58% | LDH (LDH activity, cell death) [7]: 4.85 | Inhibitory effect on rotenone-induced cell death (SH-SY5Y cells): ±
